Active and inactive are the calls of the source. The calls are words filed in the database; no cut-off is given here.
What was measured:
[1] = target: T1, Pendrin (Homo sapiens) (UniProt O43511); assay: Inhibition of human pendrin expressed in FRT cells co-expressing EYFP-HIF assessed as reduction in pendrin-mediated anion exchange at 25 uM incubated for 10 mins by pH-sensitive fluorescent probe BCECF-AM based fluorescence assay relative to control; assay type: cell-based
T1 sequence (whole entry): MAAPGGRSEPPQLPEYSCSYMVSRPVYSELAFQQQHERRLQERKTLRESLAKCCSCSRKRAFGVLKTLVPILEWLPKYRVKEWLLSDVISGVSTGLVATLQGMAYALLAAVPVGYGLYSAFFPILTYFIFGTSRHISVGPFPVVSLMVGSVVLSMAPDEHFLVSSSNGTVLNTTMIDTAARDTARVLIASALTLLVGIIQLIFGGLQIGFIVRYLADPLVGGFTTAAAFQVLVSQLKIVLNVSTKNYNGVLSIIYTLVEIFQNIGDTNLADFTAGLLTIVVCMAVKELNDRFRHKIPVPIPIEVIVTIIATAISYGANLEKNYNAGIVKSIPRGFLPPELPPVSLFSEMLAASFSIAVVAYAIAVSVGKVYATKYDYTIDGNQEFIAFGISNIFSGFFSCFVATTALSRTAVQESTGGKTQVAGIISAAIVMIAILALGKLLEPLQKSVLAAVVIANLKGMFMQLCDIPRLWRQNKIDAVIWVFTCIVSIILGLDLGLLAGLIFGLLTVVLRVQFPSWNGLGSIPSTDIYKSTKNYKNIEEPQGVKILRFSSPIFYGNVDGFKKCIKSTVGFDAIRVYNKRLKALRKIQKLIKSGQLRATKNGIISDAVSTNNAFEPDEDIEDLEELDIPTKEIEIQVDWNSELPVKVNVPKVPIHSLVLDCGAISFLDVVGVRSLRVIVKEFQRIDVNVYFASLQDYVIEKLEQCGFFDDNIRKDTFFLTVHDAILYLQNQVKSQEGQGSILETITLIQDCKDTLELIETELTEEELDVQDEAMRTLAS

[2] = target: T1, Pendrin (Homo sapiens); assay: Inhibition of human pendrin expressed in FRT cells co-expressing EYFP-HIF assessed as reduction in pendrin-mediated anion exchange at 100 uM incubated for 10 mins by pH-sensitive fluorescent probe BCECF-AM based fluorescence assay relative to control; assay type: cell-based

Row | SMILES | inhibition [1] | inhibition [2] [%]
1 | NS(=O)(=O)c1cc(C(=O)O)c(NCc2ccco2)cc1Cl | inactive | 
2 | O=C(O)c1cccnc1Nc1cccc(C(F)(F)F)c1 |  | < 40
3 | Cn1nc(COc2ccc(F)cc2)c2c1CCN(C(=O)Nc1cccc(Cl)c1)C2 | 60% | 
